For the assay, the target named is PLK1 (Homo sapiens, UniProt P53350). The assay is described as follows: PLK1 Inhibition Assay I (radioactive-phosphate incorporation). The following applies: Ki(app); PLK1 Inhibition Assay I or II (table does not say which). In kind it is biochemical. Summed up: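 Ki(app) values came from non-linear regression of initial rates after background subtraction, with phosphopeptide measured by phosphocellulose filter binding and scintillation counting. PLK1 at 2 nM was preincubated with compound (typically from 10 μM, 2-fold dilutions) for 10 min, then run 240 min at 25° C with 350 μM [γ-33P]ATP and 450 μM peptide substrate in HEPES pH 7.5 buffer.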
PLK1, sequence (P53350 whole entry): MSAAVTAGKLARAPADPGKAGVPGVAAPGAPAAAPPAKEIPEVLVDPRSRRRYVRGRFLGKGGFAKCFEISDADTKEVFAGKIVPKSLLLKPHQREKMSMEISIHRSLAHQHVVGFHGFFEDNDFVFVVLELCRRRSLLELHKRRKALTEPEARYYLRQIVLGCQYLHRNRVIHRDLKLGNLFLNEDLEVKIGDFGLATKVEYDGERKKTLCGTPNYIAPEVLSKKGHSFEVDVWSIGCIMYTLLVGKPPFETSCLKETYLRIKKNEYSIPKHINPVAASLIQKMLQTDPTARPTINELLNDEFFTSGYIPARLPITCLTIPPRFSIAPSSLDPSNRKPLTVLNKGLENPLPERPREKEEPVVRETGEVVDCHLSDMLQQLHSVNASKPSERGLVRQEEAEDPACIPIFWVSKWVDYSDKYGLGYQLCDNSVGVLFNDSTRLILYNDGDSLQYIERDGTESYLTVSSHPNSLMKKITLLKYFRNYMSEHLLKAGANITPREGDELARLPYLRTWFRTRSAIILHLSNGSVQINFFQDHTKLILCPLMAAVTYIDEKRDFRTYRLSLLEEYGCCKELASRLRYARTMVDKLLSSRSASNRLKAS
Turning to `CC(C)S(=O)(=O)N1CCC([C@@H](C)Nc2ncc(C#N)c(-c3c[nH]c4ncc(C(F)(F)F)cc34)n2)CC1` [Compound I-213, 2-((R)-1-(1-(isopropylsulfonyl)piperidin-4-yl)ethylamino)-4-(5-(trifluoromethyl)-1H-pyrrolo[2,3-b]pyridin-3-yl)pyrimidine-5-carbonitrile], the Ki is under 3 nM.
The figure for `N#Cc1cnc(NCc2cccc(F)c2)nc1-c1c[nH]c2ncc(C(F)(F)F)cc12` [Compound I-18, 2-(3-fluorobenzylamino)-4-(5-(trifluoromethyl)-1H-pyrrolo[2,3-b]pyridin-3-yl)pyrimidine-5-carbonitrile] is 3 to 40 nM; for `C[C@H](CO)Nc1ncc(C#N)c(-c2c[nH]c3ncc(C(F)(F)F)cc23)n1` [Compound I-107, 2-((R)-1-hydroxypropan-2-ylamino)-4-(5-(trifluoromethyl)-1H-pyrrolo[2,3-b]pyridin-3-yl)pyrimidine-5-carbonitrile] it is 3 to 40 nM; for `CC(Nc1ncc(C#N)c(-c2c[nH]c3ncc(C(F)(F)F)cc23)n1)c1ccc(N(C)C)nc1` (stereo not drawn) [Compound I-143, 2-(1-(6-(dimethylamino)pyridin-3-yl)ethylamino)-4-(5-(trifluoromethyl)-1H-pyrrolo[2,3-b]pyridin-3-yl)pyrimidine-5-carbonitrile] it is under 3 nM.
The result for `N#Cc1cnc(NCCN2CCOCC2)nc1-c1c[nH]c2ncc(C(F)(F)F)cc12` [Compound I-69, 2-(2-morpholinoethylamino)-4-(5-(trifluoromethyl)-1H-pyrrolo[2,3-b]pyridin-3-yl)pyrimidine-5-carbonitrile] reads over 40 nM; that for `C[C@@H](Nc1ncc(C#N)c(-c2c[nH]c3ncc(C(F)(F)F)cc23)n1)C1CCN(C(=O)C(O)CO)CC1` (stereo partly drawn) [Compound I-257, 2-((1R)-1-(1-(2,3-dihydroxypropanoyl)piperidin-4-yl)ethylamino)-4-(5-(trifluoromethyl)-1H-pyrrolo[2,3-b]pyridin-3-yl)pyrimidine-5-carbonitrile], under 3 nM; that for `C[C@@H](Nc1ncc(C#N)c(-c2c[nH]c3ncc(C(F)(F)F)cc23)n1)C(=O)NCCO` [IA-12, (2R)-2-(5-cyano-4-(5-(trifluoromethyl)-1H-pyrrolo[2,3-b]pyridin-3-yl)pyrimidin-2-ylamino)-N-(2-hydroxyethyl)-propanamide], 3 to 40 nM.
In the case of `CN1CCC(CNc2ncc(C#N)c(-c3c[nH]c4ncc(C(F)(F)F)cc34)n2)CC1` [Compound I-117, 2-((1-methylpiperidin-4-yl)methylamino)-4-(5-(trifluoromethyl)-1H-pyrrolo[2,3-b]pyridin-3-yl)pyrimidine-5-carbonitrile], the Ki was over 40 nM.
The result for `C[C@@H](Nc1ncc(C#N)c(-c2c[nH]c3ncc(C(F)(F)F)cc23)n1)c1ccc(C(=O)O)cc1` [Compound I-186, 4-((1R)-1-(5-cyano-4-(5-(trifluoromethyl)-1H-pyrrolo[2,3-b]pyridin-3-yl)pyrimidin-2-ylamino)ethyl)benzoic acid] reads under 3 nM; that for `COc1ccccc1CNc1ncc(C#N)c(-c2c[nH]c3ncc(C(F)(F)F)cc23)n1` [Compound I-15, 2-(2-methoxybenzylamino)-4-(5-(trifluoromethyl)-1H-pyrrolo[2,3-b]pyridin-3-yl)pyrimidine-5-carbonitrile], over 40 nM.
As to `CC(C)Oc1ccc(CNc2ncc(C#N)c(-c3c[nH]c4ncc(C(F)(F)F)cc34)n2)cc1` [Compound I-41, 2-(4-isopropoxybenzylamino)-4-(5-(trifluoromethyl)-1H-pyrrolo[2,3-b]pyridin-3-yl)pyrimidine-5-carbonitrile], the Ki was over 40 nM.
`C[C@@H](Nc1ncc(C#N)c(-c2c[nH]c3ncc(C(F)(F)F)cc23)n1)C1CCN(C(=O)CCO)CC1` [Compound I-216, 2-((R)-1-(1-(3-hydroxypropanoyl)piperidin-4-yl)ethylamino)-4-(5-(trifluoromethyl)-1H-pyrrolo[2,3-b]pyridin-3-yl)pyrimidine-5-carbonitrile]: the Ki was under 3 nM.
The figure for `COCC(C)Nc1ncc(C#N)c(-c2c[nH]c3ncc(C(F)(F)F)cc23)n1` (stereo not drawn) [Compound I-82, 2-(1-methoxypropan-2-ylamino)-4-(5-(trifluoromethyl)-1H-pyrrolo[2,3-b]pyridin-3-yl)pyrimidine-5-carbonitrile] is 3 to 40 nM.
The figure for `CC(C)(Nc1ncc(C#N)c(-c2c[nH]c3ncc(Cl)cc23)n1)C(=O)NC1CCCC1` [IA-4, 2-(4-(5-chloro-1H-pyrrolo[2,3-b]pyridin-3-yl)-5-cyanopyrimidin-2-ylamino)-N-cyclopentyl-2-methylpropanamide] is 3 to 40 nM; for `C[C@@H](Nc1ncc(C#N)c(-c2c[nH]c3ncc(C(F)(F)F)cc23)n1)c1ccc(N2CCN3CCC[C@H]3C2)nc1` [Compound I-291, 2-((R)-1-(6-((S)-hexahydropyrrolo[1,2-a]pyrazin-2(1H)-yl)pyridin-3-yl)ethylamino)-4-(5-(trifluoromethyl)-1H-pyrrolo[2,3-b]pyridin-3-yl)pyrimidine-5-carbonitrile] it is under 3 nM; for `CC(Nc1ncc(C#N)c(-c2c[nH]c3ncc(C(F)(F)F)cc23)n1)c1ccc(N2CCOCC2)nc1` (stereo not drawn) [Compound I-138, 2-(1-(6-morpholinopyridin-3-yl)ethylamino)-4-(5-(trifluoromethyl)-1H-pyrrolo[2,3-b]pyridin-3-yl)pyrimidine-5-carbonitrile] it is under 3 nM.
The figure for `C[C@@H](Nc1ncc(C#N)c(-c2c[nH]c3ncc(C(F)(F)F)cc23)n1)c1ccc(O[C@@H]2CCN(C)C2)nc1` [Compound I-300, 2-(I-1-(6-(I-1-methylpyrrolidin-3-yloxy)pyridin-3-yl)ethylamino)-4-(5-(trifluoromethyl)-1H-pyrrolo[2,3-b]pyridin-3-yl)pyrimidine-5-carbonitrile] is under 3 nM; for `CC(C)Nc1ncc(C#N)c(-c2c[nH]c3ncc(C(F)(F)F)cc23)n1` [Compound I-3, 2-(isopropylamino)-4-(5-(trifluoromethyl)-1H-pyrrolo[2,3-b]pyridin-3-yl)pyrimidine-5-carbonitrile] it is 3 to 40 nM.
For the molecule `CC(Nc1ncc(C#N)c(-c2c[nH]c3ncc(C(F)(F)F)cc23)n1)C1CCN(C(=O)CN)CC1` (stereo not drawn) [Compound I-188, 2-(1-(1-(2-aminoacetyl)piperidin-4-yl)ethylamino)-4-(5-(trifluoromethyl)-1H-pyrrolo[2,3-b]pyridin-3-yl)pyrimidine-5-carbonitrile], the Ki was under 3 nM.
On to `CC(Nc1ncc(C#N)c(-c2c[nH]c3ncc(C(F)(F)F)cc23)n1)C1CCN(C(=O)CN(C)C)CC1` (stereo not drawn) [Compound I-193, 2-(1-(1-(2-(dimethylamino)acetyl)piperidin-4-yl)ethylamino)-4-(5-(trifluoromethyl)-1H-pyrrolo[2,3-b]pyridin-3-yl)pyrimidine-5-carbonitrile], for which the Ki is under 3 nM.
The result for `N#Cc1cnc(NC2CC2)nc1-c1c[nH]c2ncc(C(F)(F)F)cc12` [Compound I-76, 2-(cyclopropylamino)-4-(5-(trifluoromethyl)-1H-pyrrolo[2,3-b]pyridin-3-yl)pyrimidine-5-carbonitrile] reads over 40 nM.

The values are drawn from patent US8530489B2 (Vertex Pharmaceuticals Incorporated, priority 2006, dated 2013).
